Consider one compound from paper PMC8200345 (American Journal of Clinical Dermatology, 2021).

Like-named read-outs stand apart in the source and are kept apart here.

The conditions of series [1]: cited from earlier work.
The conditions of series [2]: phase III studies combined.
The conditions of series [3]: cited from earlier work. This is another data set of the same source.
A short description of series [4]: Phase II study. Format: in vivo, human (adult patients with atopic dermatitis). The conditions noted are these: Phase II SLR (QD only); log-transformed Ctrough week 4 vs API dose.
The conditions of series [5]: human, in vivo.
For series [6] the following is noted: any of the three studies in atopic dermatitis.

Consider `N#CC[C@H](C1CCCC1)n1cc(-c2ncnc3[nH]ccc23)cn1` [ruxolitinib], for which the “Average Css” value in series [1] (25 mg BID oral) is on record as ~ 350 nM. Besides, the Maximum tolerated dose in series [1] (oral, patients with myelofibrosis) is 25 mg BID. Also, in series [2], the “Correlation between ruxolitinib Css quartiles and absolute neutrophil count” value is recorded as “no correlation”. For the same compound, the “Bioavailability after oral dosing” value in series [3] is recorded as “near-complete”. The “Dose-PK model: exponent on API dose (regression slope), estimate” value in series [4] is 0.805. In series [5], the “Dose-PK model: exponent on API dose (regression slope), estimate” value is given as 0.801; the “Dose-PK model: exponent on API dose, estimate” value is reported as 0.462; the “Dose-PK model: exponent on baseline IGA 3, estimate” value is recorded as 0.322; the “Dose-PK model: exponent on region = Europe, estimate” value was 0.782. Moreover, in series [5], the “Mean Css as percent of the whole blood IC50 value” is less than 15%. Moreover, the “Changes in hematological parameters” value in series [6] is “no clinically relevant changes”.
